Reference: US20250388597A1, “BIFUNCTIONAL PHOTOCROSSLINKING PROBES FOR COVALENT CAPTURE OF PROTEIN-NUCLEIC ACID COMPLEXES IN CELLS” (UNIVERSITY OF SOUTHERN CALIFORNIA, priority 2022, published 2025)

Experiments:
[1] = biological target: T1, FOXP3 in Hela cells (Homo sapiens, UniProt Q9BZS1); assay: Capture of AVI-TEV-FLAG tagged FOXP3 complexes in transfected Hela cells, western blot; assay type: cell-based
T1 construct: AVI tag; TEV site; expressed in transfected cells; host or cells: Hela
T1 sequence (Q9BZS1 1-431): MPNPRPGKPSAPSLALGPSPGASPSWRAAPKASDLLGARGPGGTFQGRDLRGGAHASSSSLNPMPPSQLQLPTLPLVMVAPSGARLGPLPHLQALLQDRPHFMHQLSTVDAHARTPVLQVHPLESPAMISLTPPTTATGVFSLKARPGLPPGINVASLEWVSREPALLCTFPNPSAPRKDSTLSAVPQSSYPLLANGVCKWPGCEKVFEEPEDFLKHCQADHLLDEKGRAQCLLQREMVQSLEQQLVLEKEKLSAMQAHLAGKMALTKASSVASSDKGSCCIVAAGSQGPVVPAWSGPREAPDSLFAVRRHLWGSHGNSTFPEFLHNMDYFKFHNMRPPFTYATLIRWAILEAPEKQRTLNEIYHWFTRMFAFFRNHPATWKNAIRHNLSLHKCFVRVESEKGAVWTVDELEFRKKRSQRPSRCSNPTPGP
Experimental: FIG. 10B depicts Western blot analysis of Hela cells transfected with AVI-TEV-FLAG tagged FOXP3. For each lane, approximately one million of cells were used. Lane 1 was fixed with 1% formaldehyde (FA) for 10 min according to standard protocol. Lane 2, untreated control, Lane 3, UV only, lane 4 and lane 6 were treated with SPB-AAD of 1 or 10 μM, respectively but without UV illumination, lane 5 and lane 7 were treated with SPB-AAD of 1 or 10 μM, respectively and illuminated by UV365 (10 min, 30 W, LED, sample distance 3 cm, cooling at 4 degree C.). The cells were lysed using RIPA buffer and further digested by MNase. The sample mixtures were mixed with SDS loading dye (2% SDS, boil for 10 min) and run on SDS gel for western blot analyses of using Anti-FLAG antibody.
We have performed similar experiments with a different system, Hela cells transfected with AVI-TEV-FLAG tagged FOXP3.

[2] = tested on: MEF2A/DNA complexes in GM12878 cells; assay: Capture of MEF2A/DNA complexes in GM12878 nuclei, western blot; assay type: cell-based; details: probe 10 μM + UV365 10 min
Experimental: FIG. 10A depicts Western blot analysis of presence of complexing of MEF2A with DNA in GM12878 cells treated with UV365 and SPB-PEG3-AAD. For each lane, one million of GM12878 cells were used. The nuclei of the cells were extracted and resuspended in 500 μl PBS, treated with various combination of SPB-PEG3-AAD (10 μM) and/or UV365 (10 min, 30 W, LED, sample distance 3 cm, cooling at 4-degree C.). The samples were then sonicated using covaries (1 min) followed by limited MNase digestion (10 min, 37-degree C.). The lysed and partially digested samples were then mixed with SDS loading dye (2% SDS, boil for 10 min) and run on SDS gel for western blot analyses of MEF2A using Anti-MEF2 antibody (B-4) (SCBT, cat #sc-17785).
We tested the capture of MEF2A/DNA complexes in the GM12878 cell line, a Tier 1 ENCODE cell line with rich genomics data.

| Compound | dependence of higher molecular weight FOXP3 complex formation on probe concentration ([1]; 10 μM (lane 7) vs 1 μM (lane 5)) | capture of higher molecular weight FOXP3 complexes ([1]; probe 1 or 10 μM + UV365 10 min (lanes 5 and 7)) | capture of MEF2A complexes [2] |
| --- | --- | --- | --- |
| C#CCCC1(CCNC(=O)CCCOc2c3occc3cc3ccc(=O)oc23)N=N1 [SPB-AAD, N-(2-(3-(but-3-yn-1-yl)-3H-diazirin-3-yl)ethyl)-4-((7-oxo-7H-furo[3,2-g]chromen-9-yl)oxy)butanamide] | dosage dependent | can capture higher molecular weight FOXP3 complexes | – |
| C#CCCC1(CCNC(=O)CCOCCOCCOCCC(=O)NCCNC(=O)CCCOc2c3occc3cc3ccc(=O)oc23)N=N1 [SPB-PEG3-AAD] | – | – | could capture MEF2 complexes in the nucleus |
